In patent publication US20240381872A1, “SUBSTITUTED 2,3-DIHYDRO[1,3]THIAZOLO[4,5-B]PYRIDINES, SALTS THEREOF AND THEIR USE AS HERBICIDALLY ACTIVE SUBSTANCES” (BAYER AKTIENGESELLSCHAFT, priority 2021, published 2024):

Experiments:
Format in all cases: in vivo
[1] = system: Alopecurus myosuroides (ALOMY); assay: Herbicidal pre-emergence action, section C (Table C2); details: visual grading after ca. 3 weeks vs untreated controls
From the text: (§1) Seeds of mono- and dicotyledonous weed plants and crop plants were sown, in plastic or organic planting pots, in sandy loam and covered with soil. The compounds according to the invention, formulated in the form of wettable powders (WP) or as emulsifiable concentrates (EC), were applied to the surface of the covering soil as aqueous suspension or emulsion, with the addition of 0.5% of an additive, at an application rate of 600 l of water/ha (converted). Following treatment, the pots were placed in a greenhouse and kept under optimum growth conditions for the test plants. The visual grading of the damage to the test plants was carried out after ca. 3 weeks in comparison to untreated controls (herbicidal effect in percent (%): 100% effect=plants have died off, 0% effect=as control plants).

[2] = system: Abutilon theophrasti (ABUTH); assay: Herbicidal pre-emergence action, section C (Table C1); details: Abutilon theophrasti, pre-emergence, 504 h; application rate 320 g/ha; visual grading after ca. 3 weeks vs untreated controls; read-out: pre-emergence activity against ABUTH in %
From the text: as §1

[3] = system: Triticum aestivum (TRZAS); assay: Pre-emergence effects on crop plants, section D (Table D2); details: visual grading after ca. 3 weeks
Procedure, shortened: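 Seeds sown in sandy loam and covered with soil; WP or EC formulations applied to the covering soil surface as aqueous suspension/emulsion with 0.5% additive at 600 l water/ha, at 320 g/ha or below. Greenhouse growth; visual damage scored after ca. 3 weeks versus untreated controls (0% = as control, 100% = dead).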

Setaria viridis (SETVI) [4] = assay: Herbicidal pre-emergence action, section C (Table C8); details: visual grading after ca. 3 weeks; for pest or weed control at 80 g/ha / pest or weed control at 320 g/ha: Setaria viridis, pre-emergence, 504 h, read-out: pre-emergence activity against SETVI in %; for pest or weed control at 80 g/ha: application rate 80 g/ha; for pest or weed control at 320 g/ha / pre-emergence activity against SETVI in %: application rate 320 g/ha
Procedure, shortened: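 Visual damage rating at ca. 3 weeks relative to untreated controls, expressed as % effect (100% = plants died, 0% = like controls). Pre-emergence treatment: WP or EC formulations applied to the soil surface over sown seeds in sandy loam, 600 l water/ha, 0.5% additive.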

Glycine max (GLXMA) = assay: Post-emergence effects on crop plants, section F (Table F4); details: for percent crop plant damage at 320 g/ha: application rate 320 g/ha; for post-emergence activity against GLXMA in %: crop plant damage
Procedure, shortened: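 Visual % damage versus untreated controls (100% = plants died, 0% = as control), assessed ca. 3 weeks after post-emergence spraying. Greenhouse plants in sandy loam were treated at the single-leaf stage with WP/EC formulations, 0.5% additive, 600 l water/ha, at 320 g/ha or below.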

[5] = system: Amaranthus retroflexus (AMARE); assay: Herbicidal pre-emergence action, section A (Table A11); details: application rate 320 g/ha; for pest or weed control at 320 g/ha: Amaranthus retroflexus, 504 h, read-out: pre-emergence activity against AMARE in %
Procedure, shortened: (§2)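 Seeds sown in sandy loam and covered with soil; compounds formulated as WP or EC were applied to the soil surface as aqueous suspension or emulsion with 0.5% additive at 600 l water/ha. Pots kept in greenhouse under optimum conditions; damage scored visually after ca. 3 weeks versus untreated controls (0–100%).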

[6] = system: Matricaria inodora (MATIN); assay: Herbicidal pre-emergence action, section A (Table A6); details: visual grading after ca. 3 weeks vs untreated controls
Procedure, shortened: as §2

Poa annua (POAAN) = assay: Herbicidal pre-emergence action, section A (Table A7); details: visual grading after ca. 3 weeks vs untreated controls; for pest or weed control at 320 g/ha: Poa annua, pre-emergence, 504 h, read-out: pre-emergence activity against POAAN in %
Procedure, shortened: as §2

Setaria viridis (SETVI) [7] = assay: Herbicidal pre-emergence action, section A (Table A8); details: for pest or weed control at 320 g/ha / pre-emergence activity against SETVI in %: application rate 320 g/ha
Procedure, shortened: as §2

Lolium rigidum (LOLRI) = assay: Herbicidal pre-emergence action, section A (Table A5); details: visual grading after ca. 3 weeks vs untreated controls
Procedure, shortened: as §2

[8] = system: Abutilon theophrasti (ABUTH); assay: Herbicidal post-emergence action, section B (Table B1); details: application rate 1280 g/ha, rated visually after about 3 weeks
Procedure, shortened: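 Post-emergence greenhouse test. One-leaf stage; WP or EC plus 0.5% additive; 600 liters per hectare water volume; visual % rating at ~3 weeks relative to untreated plants.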

[9] = Alopecurus myosuroides, pre-emergence, 504 h, application rate 320 g/ha, read-out: pre-emergence activity against ALOMY in %
[10] = Glycine max, 504 h, read-out: post-emergence activity against GLXMA in %
[11] = Tripleurospermum inodorum, pre-emergence, 504 h, application rate 320 g/ha, read-out: pre-emergence activity against MATIN in %
[12] = Setaria viridis, 504 h, read-out: pre-emergence activity against SETVI in %
[13] = Lolium rigidum, pre-emergence, 504 h, application rate 320 g/ha, read-out: pre-emergence activity against LOLRI in %

Cc1cc2c(nc1-c1ccccc1Cl)NCS2 [Example I-049, 5-(2-chlorophenyl)-6-methyl-2,3-dihydro[1,3]thiazolo[4,5-b]pyridine]
pest or weed control at 320 g/ha [1, 9]: 100% | pest or weed control at 320 g/ha [2]: 80% | pre-emergence activity against TRZAS in % (crop plant damage) ([3]; application rate 80 g/ha): 20% | pest or weed control at 80 g/ha (Setaria viridis (SETVI) [4]): 100%

CC(=O)N1CSc2cc(Br)c(-c3ccccc3Cl)nc21 [Example I-055, 1-[6-bromo-5-(2-chlorophenyl)[1,3]thiazolo[4,5-b]pyridin-3(2H)-yl]ethanone]
percent crop plant damage at 320 g/ha (Glycine max (GLXMA); [10]): 20% | pest or weed control at 320 g/ha [5]: 90% | pest or weed control at 320 g/ha [1, 9]: 80% | pest or weed control at 320 g/ha [2]: 80% | pest or weed control at 1280 g/ha ([6]; Tripleurospermum inodorum, pre-emergence, 504 h, application rate 1280 g/ha, read-out: pre-emergence activity against MATIN in %): 90% | pre-emergence activity against TRZAS in % (crop plant damage) ([3]; application rate 80 g/ha): 0% | pest or weed control at 320 g/ha (Poa annua (POAAN); application rate 320 g/ha): 100% | pest or weed control at 320 g/ha (Setaria viridis (SETVI) [4]): 100% | pest or weed control at 1280 g/ha (Setaria viridis (SETVI) [7]; Setaria viridis, 504 h, application rate 1280 g/ha, read-out: pre-emergence activity against SETVI in %): 100% | pest or weed control at 1280 g/ha (Lolium rigidum (LOLRI); Lolium rigidum, pre-emergence, 504 h, application rate 1280 g/ha, read-out: pre-emergence activity against LOLRI in %): 100%

CC(C)C(=O)N1C[S+]([O-])c2cc(Br)c(-c3ccccc3)nc21 (stereo not drawn) [Example I-067]
percent crop plant damage at 320 g/ha (Glycine max (GLXMA); [10]): 10% | pest or weed control at 320 g/ha [1, 9]: 90% | pre-emergence activity against TRZAS in % (crop plant damage) ([3]; application rate 80 g/ha): 10% | pest or weed control at 320 g/ha (Setaria viridis (SETVI) [4]): 100%

CCS(=O)(=O)N1C[S+]([O-])c2cc(C)c(-c3ccccc3C)nc21 (stereo not drawn) [Example I-074]
percent crop plant damage at 80 g/ha (Glycine max (GLXMA); Glycine max, 504 h, application rate 80 g/ha, read-out: post-emergence activity against GLXMA in %): 0% | pest or weed control at 320 g/ha [5]: 90% | pest or weed control at 80 g/ha ([1]; Alopecurus myosuroides, pre-emergence, 504 h, application rate 80 g/ha, read-out: pre-emergence activity against ALOMY in %): 80% | pest or weed control at 320 g/ha [6, 11]: 90% | pre-emergence activity against TRZAS in % (crop plant damage) ([3]; application rate 80 g/ha): 0% | pest or weed control at 320 g/ha (Poa annua (POAAN); application rate 320 g/ha): 100% | pest or weed control at 320 g/ha (Setaria viridis (SETVI) [4]): 100% | pest or weed control at 320 g/ha (Setaria viridis (SETVI) [7]; [12]): 100% | pest or weed control at 320 g/ha (Lolium rigidum (LOLRI); [13]): 100%

Cc1cc2c(nc1-c1cccc(C)c1F)NCS2 [Example I-113]
post-emergence activity against GLXMA in % (Glycine max (GLXMA); application rate 80 g/ha): 0% | pre-emergence activity against AMARE in % [5]: 90% | pre-emergence activity against TRZAS in % (crop plant damage) ([3]; application rate 320 g/ha): 10% | pre-emergence activity against POAAN in % (Poa annua (POAAN); application rate 1280 g/ha): 100% | pre-emergence activity against SETVI in % (Setaria viridis (SETVI) [4]): 100% | pre-emergence activity against SETVI in % (Setaria viridis (SETVI) [7]): 100% | pre-emergence activity against LOLRI in % (Lolium rigidum (LOLRI); application rate 1280 g/ha): 100%

Cc1cc2c(nc1-c1ccccc1F)N(S(=O)(=O)Cc1ccc(F)cc1)CS2 [Example I-122]
post-emergence activity against ABUTH in % [8]: 90% | post-emergence activity against GLXMA in % (Glycine max (GLXMA); application rate 80 g/ha): 10% | pre-emergence activity against AMARE in % [5]: 90% | pre-emergence activity against ALOMY in % ([1]; application rate 320 g/ha): 100% | pre-emergence activity against MATIN in % ([6]; application rate 320 g/ha): 90% | pre-emergence activity against TRZAS in % (crop plant damage) ([3]; application rate 80 g/ha): 10% | pre-emergence activity against POAAN in % (Poa annua (POAAN); application rate 320 g/ha): 100% | pre-emergence activity against SETVI in % (Setaria viridis (SETVI) [4]): 100% | pre-emergence activity against SETVI in % (Setaria viridis (SETVI) [7]): 100% | pre-emergence activity against LOLRI in % (Lolium rigidum (LOLRI); application rate 320 g/ha): 100%

CCOCCS(=O)(=O)N1C[S+]([O-])c2cc(C)c(-c3ccccc3F)nc21 (stereo not drawn) [Example I-127]
pest or weed control at 320 g/ha [5]: 90% | pest or weed control at 320 g/ha [2]: 90% | pest or weed control at 320 g/ha [6, 11]: 100% | pre-emergence activity against TRZAS in % (crop plant damage) ([3]; application rate 80 g/ha): 20% | pest or weed control at 80 g/ha (Setaria viridis (SETVI) [4]): 100% | pest or weed control at 320 g/ha (Setaria viridis (SETVI) [7]; [12]): 100% | pest or weed control at 320 g/ha (Lolium rigidum (LOLRI); [13]): 100%
